Assay [1] concerns DU 145 prostate cancer cell line. Nature of the assay: Cytotoxicity, SRB assay, DU 145. It counts as cell-based, human. The protocol: (§1) The SRB Assay was used to determine cell number during cytotoxocity experiments. The following protocol was used: • 1. […] Experimental cultures were cultured in 96-well microtiter plates (200 uL growth medium per well; 1,000-200,000 cells per well). • 3. Cultures were fixed with 50 uL 50% TCA (4° C.). (see cell fixation protocol for details). • 4. Fixed cells were stained with 50 uL 0.4% (wt/vol) SRB in 1% acetic acid for 10 minutes. • 5. SRB was removed and the cultures were quickly* rinsed 5 times with 1% acetic acid to remove unbound dye.** • 6. Cultures were air-dried overnight until there is no visible moisture. • 7. […] Absorbance was read at 540 nm. • * quickly performing rinsing process is to prevent desorption of protein-bound SRB • ** completely remove residual wash solution by sharply flicking plates over sink. Fixation of Cells Attached to the Plastic Substratum
(§2) The following protocol was used for fixing cells: • a. 50 uL of 50% TCA (4° C.) were gently layered on the top of growth medium in each well to make a final TCA concentration of 10%. • b. Cultures were incubated at 4° C. for 1 hour. • c. Cultures were washed 5 times with tap water to remove TCA, growth medium, low-molecular-weight metabolites, and serum protein. • d. Plates were air-dried until there was no visible moisture.
(The SRB assay estimates cell density from bound dye.)

Assay [2] relates to HT-29 colorectal adenocarcinoma cell line. Briefly: Cytotoxicity, SRB assay, HT-29. The class given is cell-based, human. The protocol: as §1, §2
In assay [3] the test system is PPC-1 prostate cancer cell line. Briefly: Cytotoxicity, SRB assay, PPC-1. It counts as cell-based, human. The protocol: as §1, §2
Assay [4] relates to TSU prostate cancer cell line. Briefly: Cytotoxicity, SRB assay, TSU. It counts as cell-based, human. Particulars: read-out: IC50 TSU. The protocol: as §1, §2
Assay [5] deals with PC-3 bone metastatic prostate cancer cell line. Nature of the assay: Cytotoxicity, SRB assay, PC-3. It counts as cell-based, human. The protocol:
PPC-1, LNCaP, TSU, PC-3, and DU145 were grown in PRMI-1640 medium containing 2 mM L-glutamine supplemented with 10% fetal bovine serum (FBS). Cells were maintained in a 5% CO2/95% air humidified atomosphere at 37° C.
(§3) The SRB Assay was used to determine cell number during cytotoxocity experiments. The following protocol was used: • 1. Cells were detached with 0.25% trypsin. • 2. Experimental cultures were cultured in 96-well microtiter plates (200 uL growth medium per well; 1,000-200,000 cells per well). • 3. Cultures were fixed with 50 uL 50% TCA (4° C.). (see cell fixation protocol for details). • 4. Fixed cells were stained with 50 uL 0.4% (wt/vol) SRB in 1% acetic acid for 10 minutes. • 5. SRB was removed and the cultures were quickly* rinsed 5 times with 1% acetic acid to remove unbound dye.** • 6. Cultures were air-dried overnight until there is no visible moisture. • 7. The cellular protein-bound SRB was dissolved with 200 uL unbuffered Tris base (10 mM, pH 10.5) for 30 minutes on a rocking platform shaker. • 8. Absorbance was read at 540 nm. • * quickly performing rinsing process is to prevent desorption of protein-bound SRB • ** completely remove residual wash solution by sharply flicking plates over sink. Fixation of Cells Attached to the Plastic Substratum
as §2

Assay [6] deals with AR-expressing LNCaP prostate cancer cell line. Briefly: Cytotoxicity, SRB assay, LNCaP. It counts as cell-based, human. As to the method:
as §1, §2

For assay [7], the system named is CV-1 control cell line. Briefly: Cytotoxicity, SRB assay, CV-1 control. The class given is cell-based, African green monkey. The protocol:
as §3, §2

Assay [8] concerns TCCSUP bladder cancer cell line. Nature of the assay: Cytotoxicity, SRB assay, TCCSUP. The class given is cell-based, human. The note with it: read-out: IC50 TCCSUP. The protocol:
as §1, §2

The test system of assay [9] is MCF-7 cells. Nature of the assay: Induction of apoptosis, MCF-7. The class given is cell-based. As to the method: (§4) The ability of DJ 1-31, DJ 1-29, S-NTBA and Compound V to induce apoptosis in different prostate cancer cell lines (DU 145, PC-3, TSU, PPC-1 and LNCaP), in other cancer cell lines (TCCSUP, HT-29 and MCF-7) and in a control cell line (CV-1) was determined and the results are shown in Table 6.

The test system of assay [10] is CV-1 cells. Briefly: Induction of apoptosis, CV-1. The class given is cell-based, African green monkey. As to the method:
as §4

The subject of assay [11] is TCCSUP cells. Nature of the assay: Induction of apoptosis, TCCSUP. The class given is cell-based, human. As to the method:
as §4

The test system of assay [12] is TSU cells. Nature of the assay: Induction of apoptosis, TSU. The class given is cell-based, human. As to the method: as §4
Assay [13] relates to LNCaP cells. Briefly: Induction of apoptosis, LNCaP. The class given is cell-based, human. The protocol: as §4
The subject of assay [14] is HT-29 cells. Briefly: Induction of apoptosis, HT-29. The class given is cell-based, human. As to the method:
as §4

The subject of assay [15] is DU 145 cells. Nature of the assay: Induction of apoptosis, DU 145. The class given is cell-based, human. The protocol:
as §4

For assay [16], the system named is PC-3 cells. Briefly: Induction of apoptosis, PC-3. The class given is cell-based, human. The protocol:
as §4

In assay [17] the test system is PPC-1 cells. Briefly: Induction of apoptosis, PPC-1. The class given is cell-based, human. The protocol: as §4
Setting [18] is: Homo sapiens, DU-145, read-out: IC50 DU145.
[19] abbreviates: Homo sapiens, HT-29, read-out: IC50 HT-29.
The mark [20] stands for this setting: Homo sapiens, PPC-1, read-out: IC50 PPC-1.
Setting [21] is: Homo sapiens, LNCaP, read-out: IC50 LNCaP.
Where [22] appears, read: Homo sapiens, LNCaP, 24 h, read-out: IC50 LNCaP 24 hr treatment.
Where [23] appears, read: Homo sapiens, LNCaP, 144 h, read-out: IC50 LNCaP 6 day treatment.
The mark [24] stands for this setting: Homo sapiens, 24 h, read-out: IC50 PC-3 24 hr treatment.
Where [25] appears, read: Homo sapiens, 96 h, read-out: IC50 PC-3 4 day treatment.
[26] abbreviates: Homo sapiens, read-out: IC50 PC-3.
Setting [27] is: Chlorocebus sabaeus, 24 h, read-out: IC50 CV-1 24 hr treatment.
[28] abbreviates: Chlorocebus sabaeus, 96 h, read-out: IC50 CV-1 4 day treatment.
Setting [29] is: Chlorocebus sabaeus, read-out: IC50 CV-1 (Control).

Each structure is given as a SMILES string. Like-named read-outs stand apart in the source and are kept apart here.

In the case of `O=c1[nH]cc(F)c(=O)[nH]1` [Compound 5-FU, reference compound], the IC50 in [1] (Table 2A, Example 1, read-out: IC50 DU145) was 4.5 ± 0.3 µM; in [2] (Table 2B, Example 1, read-out: IC50 HT-29) it was 5.4 ± 1.1 µM; in assay [3] (Table 2A, Example 1, read-out: IC50 PPC-1), 5.1 ± 0.5 µM; in assay [4] (Table 2A, Example 1), 2.7 ± 0.6 µM; in assay [5] (24 hr treatment, Example 3, read-out: IC50 PC-3 24 hr treatment) it was 20000 to 50000 nM; in assay [5] (4 day treatment, Example 3, read-out: IC50 PC-3 4 day treatment), 10900 nM. In addition, the IC50 in assay [5] (Table 2A, Example 1, read-out: IC50 PC-3) turned out to be 10500 ± 600 nM; in assay [6] (Table 2A, Example 1, read-out: IC50 LNCaP), 4.1 ± 0.6 µM; in assay [7] (Table 2B, Example 1, read-out: IC50 CV-1 (Control)) it was 5.4 ± 0.3 µM; in assay [8] (Table 2B, Example 1), 3.6 ± 0.7 µM.

For `CC(=O)O[C@H]1C(=O)[C@@]2(C)[C@H]([C@H](OC(=O)c3ccccc3)[C@]3(O)C[C@H](OC(=O)[C@H](O)[C@@H](NC(=O)c4ccccc4)c4ccccc4)C(C)=C1C3(C)C)[C@]1(OC(C)=O)CO[C@@H]1C[C@@H]2O` [Taxol, reference compound], the IC50 is 0.0027 ± 0.0003 µM in [1] (setting [18]); 0.0066 ± 0.0006 µM in assay [2] (setting [19]); 0.0027 ± 0.0003 µM in assay [3] (setting [20]); 0.0024 ± 0.0008 µM in [4] (Homo sapiens); 6.3 ± 0.6 nM in assay [5] (Homo sapiens, Table 2A, Taxol in nM, read-out: IC50 PC-3); 0.0019 ± 0.0003 µM in assay [6] (setting [21]). Moreover, the IC50 in assay [8] (Homo sapiens, TCC-SUP) is 0.0043 ± 0.0006 µM.

As to `C[C@@](O)(CBr)C(=O)Nc1ccc([N+](=O)[O-])c(C(F)(F)F)c1` [S-NTBA], the “Enrichment factor MCF-7” value in assay [9] is 2.012. For the same molecule, in assay [10], the “Enrichment factor CV-1” value is listed as 0.393. Besides, the “Enrichment factor TCCSUP” value in [11] came out at 0.118. Also, the IC50 in [1] (Homo sapiens, DU-145, Table 2A, Example 1, read-out: IC50 DU145) is 4.7 ± 0.3 µM; in assay [2] (Homo sapiens, HT-29, Table 2B, Example 1, read-out: IC50 HT-29), 6.3 ± 0.3 µM; in assay [3] (Homo sapiens, PPC-1, Table 2A, Example 1, read-out: IC50 PPC-1), 2.2 ± 0.2 µM; in [4] (Homo sapiens, Table 2A, Example 1), 3.5 ± 0.2 µM; in assay [5] (Homo sapiens, 96 h, 4 day treatment, Example 3, read-out: IC50 PC-3 4 day treatment), 18000 nM; in assay [5] (Homo sapiens, 24 hr treatment, Example 3, read-out: IC50 PC-3 24 hr treatment), more than 50000 nM. Besides, the IC50 in [5] (Homo sapiens, Table 2A, Example 1, read-out: IC50 PC-3) is 3100 ± 600 nM; in assay [6] (setting [22]), 4.4 µM; in assay [6] (setting [23]), 2.1 µM; in [6] (setting [21]), 1.4 ± 0.2 µM; in assay [7] (Chlorocebus sabaeus, 24 h, drug incubation time 1 day, Example 4, read-out: IC50 CV-1), more than 50 µM; in assay [7] (Chlorocebus sabaeus, 96 h, 4 day treatment, Example 2, read-out: IC50 CV-1 4 day treatment), 4.9 µM. Further, the concentration for half-maximal inhibition (IC50) was 38.6 ± 3.6 µM in [7] (Chlorocebus sabaeus, 96 h, drug incubation time 4 day, Example 4, read-out: IC50 CV-1); 48.2 ± 10.9 µM in assay [7] (Chlorocebus sabaeus, 24 hr treatment, Example 2, read-out: IC50 CV-1 24 hr treatment); 12.7 ± 0.3 µM in assay [7] (Chlorocebus sabaeus, Table 2B, Example 1, read-out: IC50 CV-1 (Control)); 2.4 ± 0.3 µM in [8] (Homo sapiens, TCC-SUP, Table 2B, Example 1). The “Enrichment factor TSU” value in assay [12] worked out at 0.705. The “Enrichment factor LNCaP” value in assay [13] was determined as 0.660. Besides, the “Enrichment factor HT-29” value in assay [14] was 1.538. Besides, the “Enrichment factor DU 145” value in [15] worked out at 1.929. Also, the “Enrichment factor PC-3” value in assay [16] was found to be 0.750. The “Enrichment factor PPC-1” value in assay [17] was 0.697.

Take `C[C@](O)(CSc1ccc(NC(=O)CCl)cc1)C(=O)Nc1ccc(C#N)c(C(F)(F)F)c1` [R-CTF-T-CA-1]: the IC50 in [1] (setting [18]) was 2.6 ± 0.1 µM; in [2] (setting [19]), 6.4 ± 0.5 µM; in assay [3] (setting [20]) it was 2.5 ± 0.1 µM; in [4] (Homo sapiens), 1.5 ± 0.2 µM; in [5] (setting [24]), 5800 nM; in assay [5] (setting [25]) it was 4300 nM. The concentration for half-maximal inhibition (IC50) in [5] (setting [26]) was determined as 6100 ± 500 nM; in assay [6] (setting [22]) it was 3.5 µM; in assay [6] (setting [23]), 1.7 µM; in assay [6] (setting [21]), 1.1 ± 0.2 µM; in [7] (setting [27]), 6.2 ± 0.2 µM; in assay [7] (setting [28]), 4.2 µM. In addition, the IC50 in assay [7] (setting [29]) worked out at 2.7 ± 1 µM; in assay [8] (Homo sapiens, TCC-SUP), 1.8 ± 0.2 µM.

For `C[C@](O)(CSc1ccc(NC(=O)CBr)cc1)C(=O)Nc1ccc(C#N)c(C(F)(F)F)c1` [R-CTF-T-BA-1], the IC50 in assay [1] (setting [18]) is 3.1 ± 0.1 µM; in [2] (setting [19]), 1.6 ± 0.03 µM; in assay [3] (setting [20]) it was 1.3 ± 0.1 µM; in assay [4] (Homo sapiens) it was 0.6 ± 0.1 µM; in assay [5] (setting [24]), 22100 nM; in [5] (setting [25]) it was 16800 nM. Moreover, the IC50 is 2600 ± 100 nM in assay [5] (setting [26]); 11.2 µM in [6] (setting [22]); 8.1 µM in [6] (setting [23]); 3.2 ± 0.4 µM in [6] (setting [21]); 23.4 ± 1.6 µM in assay [7] (setting [27]); 13.9 µM in assay [7] (setting [28]). The IC50 was determined as 10.8 ± 0.5 µM in [7] (setting [29]) and 3.8 ± 0.5 µM in assay [8] (Homo sapiens, TCC-SUP).

As a reminder, the IC50 is the point on the concentration scale where inhibition reaches its midpoint.

The values are drawn from patent US20060035966A1, “Irreversible selective androgen receptor modulators and methods of use thereof” (priority 2002, published 2006).
